In PubChem BioAssay AID330 (DTP/NCI, 2004):
Where “and” joins values, the source holds several entries; their conditions need not be identical. Equal entries are not always repeated. Toxic doses and inconclusive results are not listed. Rule for the calls: active = survival T/C of 150% or more; inactive = T/C below 125% in these data.

Tested on: P388 leukemia ip, CD2F1 mice, survival T/C
Experiment: NCI In Vivo Anticancer Drug Screen. Data for tumor model P388 Leukemia (intraperitoneal) in CD2F1 (CDF1) mice
Details: endpoint: median survival time, higher = longer survival
Method in brief: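 Mice carrying the transplanted tumor received test compound or vehicle. Survival was recorded in each group, and the value is the treated-group measurement divided by that of the vehicle-treated control group.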

[1] = dose: 50.0 mg/kg/injection, schedule: Q01DX005 (ip), vehicle: saline with Tween-80
[2] = dose: 100.0 mg/kg/injection, schedule: Q01DX005 (ip), vehicle: saline with Tween-80
[3] = dose: 200.0 mg/kg/injection, schedule: Q01DX005 (ip), vehicle: saline with Tween-80
[4] = dose: 50.0 mg/kg/injection, schedule: Q01DX009 (ip), vehicle: saline
[5] = dose: 100.0 mg/kg/injection, schedule: Q01DX009 (ip), vehicle: saline
[6] = dose: 200.0 mg/kg/injection, schedule: Q01DX009 (ip), vehicle: saline
[7] = dose: 200.0 mg/kg/injection, schedule: Q01DX005 (ip), vehicle: distilled water + Tween-80

Measured: T/C

O=C1c2ccccc2C(=O)c2c(O)c(NCCNCCO)cc(O)c21
inactive: dose: 1.25 mg/kg/injection, schedule: Q01DX009 (ip), vehicle: acid diluted with saline 113 % of control | dose: 2.5 mg/kg/injection, schedule: Q01DX009 (ip), vehicle: acid diluted with saline 98 % of control and 104 % of control | dose: 5.0 mg/kg/injection, schedule: Q01DX009 (ip), vehicle: acid diluted with saline 117 % of control and 122 % of control | dose: 10.0 mg/kg/injection, schedule: Q01DX009 (ip), vehicle: acid diluted with saline 108 % of control and 124 % of control | dose: 20.0 mg/kg/injection, schedule: Q01DX009 (ip), vehicle: acid diluted with saline 104 % of control and 118 % of control | dose: 40.0 mg/kg/injection, schedule: Q01DX009 (ip), vehicle: acid diluted with saline 108 % of control | dose: 80.0 mg/kg/injection, schedule: Q01DX009 (ip), vehicle: acid diluted with saline 89 % of control

Cc1ccc(-c2cc(N)n(-c3nnc(-c4ccccc4)c(-c4ccccc4)n3)n2)cc1
inactive: [1] 105 % of control | [2] 105 % of control | [3] 93 % of control

CCOP(=O)(NNP(=O)(OCC)OCC)OCC
inactive: [4] 106 % of control | [5] 103 % of control | [6] 104 % of control

CCN(CC)CC.[CH-]1CCCCC1.[CH-]1CCCCC1.[CH-]1CCCCC1.[Cl-].[N-]=C=NC(=O)NC1CCCCC1.[Sn+4]
inactive: dose: 1.5 mg/kg/injection, schedule: Q01DX005 (ip), vehicle: Klucel (hydroxypropylcellulose) (HPC) 92 % of control | dose: 3.0 mg/kg/injection, schedule: Q01DX005 (ip), vehicle: Klucel (hydroxypropylcellulose) (HPC) 92 % of control | dose: 6.0 mg/kg/injection, schedule: Q01DX005 (ip), vehicle: Klucel (hydroxypropylcellulose) (HPC) 102 % of control and 92 % of control

CCOC(=O)C(=C=[N-])[n+]1ccc(C)cc1
inactive: dose: 6.25 mg/kg/injection, schedule: Q01DX009 (ip), vehicle: saline sonified 90 % of control | dose: 12.5 mg/kg/injection, schedule: Q01DX009 (ip), vehicle: saline sonified 90 % of control | dose: 25.0 mg/kg/injection, schedule: Q01DX009 (ip), vehicle: saline sonified 90 % of control

Cc1cccnc1OCC(=O)O
inactive: dose: 60.0 mg/kg/injection, schedule: Q01DX005 (ip), vehicle: Klucel (hydroxypropylcellulose) (HPC) 100 % of control and 93 % of control | dose: 120.0 mg/kg/injection, schedule: Q01DX005 (ip), vehicle: Klucel (hydroxypropylcellulose) (HPC) 103 % of control and 90 % of control | dose: 240.0 mg/kg/injection, schedule: Q01DX005 (ip), vehicle: Klucel (hydroxypropylcellulose) (HPC) 100 % of control and 92 % of control

CC1(C)C(c2ccccc2)CC(c2cccc(O)c2)=[N+]1[O-] (stereo not drawn)
inactive: dose: 50.0 mg/kg/injection, schedule: Q01DX009 (ip), vehicle: Klucel (hydroxypropylcellulose) (HPC) 97 % of control | dose: 100.0 mg/kg/injection, schedule: Q01DX009 (ip), vehicle: Klucel (hydroxypropylcellulose) (HPC) 97 % of control | dose: 200.0 mg/kg/injection, schedule: Q01DX009 (ip), vehicle: Klucel (hydroxypropylcellulose) (HPC) 101 % of control

CC(C)CCCC(C)C1CCC2C3CC=C4CC(OC(=O)C56C=CC(=O)C5C5C=CC6CC5)CCC4(C)C3CCC12C (stereo not drawn)
inactive: dose: 1.56 mg/kg/injection, schedule: Q01DX005 (ip), vehicle: distilled water + Tween-80 100 % of control | dose: 3.12 mg/kg/injection, schedule: Q01DX005 (ip), vehicle: distilled water + Tween-80 90 % of control | [7] 86 % of control

ClCCN(CCCl)CC(Cl)COc1cccc2ccccc12 (stereo not drawn)
inactive: dose: 0.62 mg/kg/injection, schedule: Q01DX009 (ip), vehicle: saline 106 % of control and 108 % of control | dose: 1.25 mg/kg/injection, schedule: Q01DX009 (ip), vehicle: saline 100 % of control and 108 % of control | dose: 2.5 mg/kg/injection, schedule: Q01DX009 (ip), vehicle: saline 86 % of control and 97 % of control

Cc1ccc(S(=O)(=O)N/N=C/c2ccoc2)cc1
inactive: dose: 12.5 mg/kg/injection, schedule: Q01DX005 (ip), vehicle: distilled water + Tween-80 100 % of control | dose: 25.0 mg/kg/injection, schedule: Q01DX005 (ip), vehicle: distilled water + Tween-80 102 % of control | dose: 50.0 mg/kg/injection, schedule: Q01DX005 (ip), vehicle: distilled water + Tween-80 93 % of control | dose: 100.0 mg/kg/injection, schedule: Q01DX005 (ip), vehicle: distilled water + Tween-80 102 % of control | [7] 100 % of control

N#C/C(=C\c1ccco1)C(=O)c1ccco1
inactive: dose: 12.5 mg/kg/injection, schedule: Q01DX009 (ip), vehicle: saline with Tween-80 112 % of control | dose: 25.0 mg/kg/injection, schedule: Q01DX009 (ip), vehicle: saline with Tween-80 95 % of control | dose: 50.0 mg/kg/injection, schedule: Q01DX009 (ip), vehicle: saline with Tween-80 89 % of control and 97 % of control

CCOC(=O)c1sc(N)c(C(=O)OCC)c1C
inactive: dose: 100.0 mg/kg/injection, schedule: Q01DX009 (ip), vehicle: saline with Tween-80 86 % of control

C=C(C)C(=O)OC1CCC2(C)C(CCC3C2CCC2(C)C(c4ccc(=O)oc4)CCC32O)C1 (stereo not drawn)
inactive: dose: 12.5 mg/kg/injection, schedule: Q01DX009 (ip), vehicle: saline 86 % of control | dose: 25.0 mg/kg/injection, schedule: Q01DX009 (ip), vehicle: saline 98 % of control | [4] 101 % of control and 94 % of control | [6] 95 % of control

C=C1CCN(c2cccc(Cl)c2)C1=O
inactive: dose: 4.0 mg/kg/injection, schedule: Q01DX009 (ip), vehicle: saline + alcohol 96 % of control | dose: 8.0 mg/kg/injection, schedule: Q01DX009 (ip), vehicle: saline + alcohol 101 % of control | dose: 16.0 mg/kg/injection, schedule: Q01DX009 (ip), vehicle: saline + alcohol 100 % of control | dose: 32.0 mg/kg/injection, schedule: Q01DX009 (ip), vehicle: saline + alcohol 105 % of control | dose: 64.0 mg/kg/injection, schedule: Q01DX009 (ip), vehicle: saline + alcohol 100 % of control

CC(=O)C1=C(C)O/C(=C/c2cccc(Cl)c2)C1=O
inactive: dose: 12.5 mg/kg/injection, schedule: Q01DX005 (ip), vehicle: saline with Tween-80 107 % of control | dose: 25.0 mg/kg/injection, schedule: Q01DX005 (ip), vehicle: saline with Tween-80 118 % of control | [1] 120 % of control and 121 % of control | [2] 118 % of control | [3] 119 % of control

C/C(=N\NC(=O)c1ccccc1O)c1cccc(/C(C)=N/NC(=O)c2ccccc2O)n1
inactive: dose: 3.12 mg/kg/injection, schedule: Q01DX009 (ip), vehicle: saline 110 % of control | dose: 6.25 mg/kg/injection, schedule: Q01DX009 (ip), vehicle: saline 114 % of control

O=C(NCc1ccccc1)Nc1cccc2c(NC(=O)NCc3ccccc3)cccc12
inactive: dose: 30.0 mg/kg/injection, schedule: Q01DX005 (ip), vehicle: saline with Tween-80 91 % of control | dose: 60.0 mg/kg/injection, schedule: Q01DX005 (ip), vehicle: saline with Tween-80 86 % of control and 89 % of control | dose: 120.0 mg/kg/injection, schedule: Q01DX005 (ip), vehicle: saline with Tween-80 86 % of control

CCN1C=C/C(=C/c2cc3scc(-c4ccccc4)[n+]3c3ccccc23)c2ccccc21
inactive: dose: 0.32 mg/kg/injection, schedule: Q04DX003 (ip), vehicle: saline sonified 109 % of control

c1ccc2c3c([nH]c2c1)[C@@H]1CCN2CCC[C@@H]2N1CC3
inactive: dose: 5.75 mg/kg/injection, schedule: Q01DX005 (ip), vehicle: Klucel (hydroxypropylcellulose) (HPC) 101 % of control | dose: 11.5 mg/kg/injection, schedule: Q01DX005 (ip), vehicle: Klucel (hydroxypropylcellulose) (HPC) 100 % of control | dose: 23.0 mg/kg/injection, schedule: Q01DX005 (ip), vehicle: Klucel (hydroxypropylcellulose) (HPC) 95 % of control | dose: 46.0 mg/kg/injection, schedule: Q01DX005 (ip), vehicle: Klucel (hydroxypropylcellulose) (HPC) 93 % of control

Cc1oc(N)c(C#N)c1C
inactive: dose: 100.0 mg/kg/injection, schedule: Q01DX009 (ip), vehicle: saline sonified 110 % of control | dose: 200.0 mg/kg/injection, schedule: Q01DX009 (ip), vehicle: saline sonified 115 % of control | dose: 400.0 mg/kg/injection, schedule: Q01DX009 (ip), vehicle: saline sonified 120 % of control

O=N[O-].[Co].[N-]=C=S.[NH2-].[NH2-].[NH2-].[NH2-]
inactive: dose: 12.5 mg/kg/injection, schedule: Q04DX003 (ip), vehicle: saline with Tween-80 110 % of control | dose: 25.0 mg/kg/injection, schedule: Q04DX003 (ip), vehicle: saline with Tween-80 120 % of control | dose: 50.0 mg/kg/injection, schedule: Q04DX003 (ip), vehicle: saline with Tween-80 120 % of control

Cc1[nH]n(-c2ccc(Cl)cc2)c(=O)c1N=Nc1cccc(C(F)(F)F)c1
inactive: [4] 88 % of control | [5] 91 % of control | [6] 93 % of control
